Source: PMC12292835, “Amylin Receptor 1 Mutagenesis Revealed a Potential Role of Calcitonin Serine 29 in Receptor Interaction” (Biomedicines, 2025)
Where a SMILES comes first, the peptide text is derived from it. The star is where a group is joined. FITC = O=C1OC2(c3ccc(O)cc3Oc3cc(O)ccc32)c2ccc(NC(=S)*)cc21

How the values were obtained:
[1] = target: T1, amylin receptor 1 ECD with calcitonin receptor E123D mutation (Homo sapiens, UniProt O60894+P30988, E123D); assay: FP saturation binding, E123D; conditions: for Average fluorescence intensity change upon receptor ECD binding: % of a free probe intensity, Mean ± S.D., max receptor 3 μM (sCT), 1 μM (AC413); for effect of mutation on binding affinity: compared with E123A, in words
T1 construct: pHLsec/hRAMP1.24–111-(GSA)3-hCTR.34–141.E123D-H6 (D-pJJ001); H6 (hexahistidine) (C); made in house; host or cells: HEK293 (transient transfection, secreted, N-glycosylated)
From the text: pHLsec-based vectors were used to express wild-type and mutated amylin receptor 1 extracellular domains as secreted proteins to cell culture media. The plasmid DNA construct of the wild-type amylin receptor 1 extracellular domain, pHLsec/hRAMP1.24–111-(GSA)3-hCTR.34–141-H6 (H-pSL005) was previously described. The following DNA vector plasmids were made for this study: pHLsec/hRAMP1.24–111-(GSA)3-hCTR.34–141.D97A-H6 (D-pSL009), pHLsec/hRAMP1.24–111-(GSA)3-hCTR.34–141.D97E-H6 (D-pJS001), pHLsec/hRAMP1.24–111-(GSA)3-hCTR.34–141.D101A-H6 (D-pJJ003), pHLsec/hRAMP1.24–111-(GSA)3-hCTR.34–141.D101E-H6 (D-pJJ002), pHLsec/hRAMP1.24–111-(GSA)3-hCTR.34–141.E123A-H6 (D-pJJ004), pHLsec/hRAMP1.24–111-(GSA)3-hCTR.34–141.E123D-H6 (D-pJJ001), pHLsec/hRAMP1.24–111-(GSA)3-hCTR.34–141.N124A-H6 (D-pJS005), pHLsec/hRAMP1.24–111-(GSA)3-hCTR.34–141.N124D-H6 (D-pJS006), pHLsec/hRAMP1.24–111-(GSA)3-hCTR.34–141.N135A-H6 (D-pJW001), and pHLsec/hRAMP1.24–111-(GSA)3-hCTR.34–141.N135D-H6 (D-pJS002). The mutations were introduced to the calcitonin receptor extracellular domain by using DNA Assembly reaction. Coding sequences of the receptor expression vectors were confirmed with Sanger sequencing by Bionics (Seoul, Republic of Korea). DNA plasmid vectors were extracted and were purified from bacterial cells with NucleoBond® Extra Midi Plus kit (Macherey-Nagel, Germany). The purified DNA vectors were stored at −20 °C until their use for mammalian cell transfection.
The overall experimental procedure of reconstituting the functional amylin receptor 1 extracellular domain (ECD) as the fusion protein of RAMP1 ECD and the calcitonin receptor ECD was previously described. The wild-type and mutated amylin receptor 1 ECDs were expressed from HEK293 cells with transient transfection with polyethylenimine. The expressed receptor proteins were secreted to cell culture media for 4 days at 37 °C. The media were collected for the receptor protein purification. Initial dialysis was performed with the dialysis buffer (Tris 25 mM (pH 7.4), NaCl 150 mM, and imidazole 10 mM) overnight. […] Then, a size exclusion column chromatography (SEC) was performed with SEC column (Cytiva, HiLoad® 16/600 Superdex® 200 pg) and SEC buffer (Tris 50 mM (pH 7.4), NaCl 150 mM, and glycerol (v/v) 10%) as previously described. As the final step, the purified receptor proteins were dialyzed to storage buffer (HEPES 25 mM (pH 7.4), NaCl 150 mM, and glycerol (v/v) 50 %) and were stored at −60 °C until their use for the receptor–ligand binding assay. […]
The overall procedure of the FP binding assay with a saturation binding format was previously described. […] FITC-labeled peptide probes were incubated for 1 h at room temperature with the purified receptor protein prior to fluorescence signal measurement. […]

[2] = test system: receptor ECD; conditions: receptor ECD binding; cited from earlier work
Protocol: The salmon calcitonin C-terminal fragment was reported to have micromolar affinity (KI 1~3 μM) both for calcitonin and amylin receptor ECDs. The fluorescein isothiocyanate (FITC)-labeled salmon calcitonin fragment (FITC-sCT(22–32)) was used as a peptide probe for the receptor–ligand binding assay in the current study. FITC addition to the N-terminus of an amylin receptor antagonistic peptide AC413(6–25) Y25P was previously shown to increase the peptide affinity for receptor ECD binding by more than 10-fold. Based on the binding affinity of FITC-sCT(22–32) measured in the current ...

T1 sequence (O60894 24-111): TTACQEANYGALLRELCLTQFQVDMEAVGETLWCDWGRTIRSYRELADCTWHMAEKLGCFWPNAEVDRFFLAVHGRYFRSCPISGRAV
T1 sequence (P30988 34-141 E123D): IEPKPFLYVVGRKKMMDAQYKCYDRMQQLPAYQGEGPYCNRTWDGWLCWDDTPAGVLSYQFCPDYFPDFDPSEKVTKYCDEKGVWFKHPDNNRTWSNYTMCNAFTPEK

Average fluorescence intensity change upon receptor ECD binding [1] [%]	SMILES	effect of mutation on binding affinity [1]	increase of peptide affinity by FITC addition to the N-terminus [2]
72 ± 4	CC(C)C[C@H](NC(=O)[C@H](CCCNC(=N)N)NC(=O)[C@@H](NC(=O)[C@H](CC(C)C)NC(=O)[C@H](Cc1ccccc1)NC(=O)[C@H](CC(N)=O)NC(=O)[C@H](C)NC(=S)Nc1ccc2c(c1)C(=O)OC21c2ccc(O)cc2Oc2cc(O)ccc21)C(C)C)C(=O)N[C@@H](CCC(N)=O)C(=O)N[C@H](C(=O)N[C@@H](Cc1ccc(O)cc1)C(=O)N1CCC[C@H]1C(=O)N[C@@H](CCCNC(=N)N)C(=O)N[C@H](C(=O)N[C@@H](CC(N)=O)C(=O)N[C@H](C(=O)NCC(=O)N[C@@H](C)C(=O)N[C@@H](CC(N)=O)C(=O)N[C@H](C(=O)N1CCC[C@H]1C(N)=O)[C@@H](C)O)C(C)C)[C@@H](C)O)[C@@H](C)O [FITC-AC413(6–25) Y25P] ({FITC}-ANFLVRLQTYPRTNVGANTP-NH2; C-terminus assumed)	failed to restore the decreased binding affinity	more than 10 fold
72 ± 6	C[C@@H](O)[C@H](NC(=O)[C@H](CC(N)=O)NC(=O)[C@@H](NC(=O)[C@H](CCCNC(=N)N)NC(=O)[C@@H]1CCCN1C(=O)[C@H](Cc1ccc(O)cc1)NC(=S)Nc1ccc2c(c1)C(=O)OC21c2ccc(O)cc2Oc2cc(O)ccc21)[C@@H](C)O)C(=O)NCC(=O)N[C@@H](CO)C(=O)NCC(=O)N[C@H](C(=O)N1CCC[C@H]1C(N)=O)[C@@H](C)O [FITC-sCT(22–32)] ({FITC}-YPRTNTGSGTP-NH2; C-terminus assumed)	fully restored the decreased binding affinity	
